Assay results from BindingDB's records for doi:10.1021/jm2007062 (Tranzyme Pharma, 2011).

molecular target: Growth hormone secretagogue receptor type 1 (Homo sapiens) (UniProt Q92847); assay: Displacement of [125I-His9]-ghrelin from human GRLN receptor by radioligand binding assay
Sequence (Q92847 whole entry, looked up): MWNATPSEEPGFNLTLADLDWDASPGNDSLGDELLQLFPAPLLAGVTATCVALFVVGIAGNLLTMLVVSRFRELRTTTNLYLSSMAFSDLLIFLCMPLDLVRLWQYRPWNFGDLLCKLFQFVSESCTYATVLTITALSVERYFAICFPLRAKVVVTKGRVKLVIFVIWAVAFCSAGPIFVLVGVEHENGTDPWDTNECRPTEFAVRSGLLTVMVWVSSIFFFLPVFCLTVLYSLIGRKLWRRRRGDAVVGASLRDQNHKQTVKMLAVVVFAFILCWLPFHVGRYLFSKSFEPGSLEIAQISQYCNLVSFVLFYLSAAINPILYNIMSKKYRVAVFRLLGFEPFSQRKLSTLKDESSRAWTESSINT

Row | Ki | Structure (SMILES)
1 | > 10 µM | CC[C@H](C)[C@@H]1NCCCCCCCNC(=O)[C@@H](Cc2ccccc2)NC(=O)[C@@H](C)N(C)C1=O
2 | > 10 µM | CN1CC(=O)N[C@H](Cc2ccccc2)C(=O)NCCCc2ccccc2OCCN[C@@H](CO)C1=O
3 | > 10 µM | CN1CC(=O)N[C@H](Cc2ccccc2)C(=O)NCCCc2ccccc2OCCN[C@@H](CCC(=O)O)C1=O
4 | > 10 µM | CCC[C@@H]1NCCOc2ccccc2CCCNC(=O)[C@@H](CCCN)NC(=O)CN(C)C1=O

Row | Structure (SMILES) | Ki
5 | CCC[C@@H]1NCCOc2ccccc2CCCNC(=O)[C@@H](CO)NC(=O)CN(C)C1=O | > 10 µM
6 | CCC[C@@H]1NCCOc2ccccc2CCCNC(=O)[C@@H](CCC(=O)O)NC(=O)CN(C)C1=O | > 10 µM
